Assay results as given in US20120122860A1, “SOLID FORMS OF SULFONAMIDES AND AMINO ACIDS” (Plexxikon, Inc., priority 2009, published 2012).

What was measured:
[1] = target: T1, TEC (Homo sapiens, UniProt P42680); assay: Kinase activity assay, TEC
T1 sequence (P42680 1-631): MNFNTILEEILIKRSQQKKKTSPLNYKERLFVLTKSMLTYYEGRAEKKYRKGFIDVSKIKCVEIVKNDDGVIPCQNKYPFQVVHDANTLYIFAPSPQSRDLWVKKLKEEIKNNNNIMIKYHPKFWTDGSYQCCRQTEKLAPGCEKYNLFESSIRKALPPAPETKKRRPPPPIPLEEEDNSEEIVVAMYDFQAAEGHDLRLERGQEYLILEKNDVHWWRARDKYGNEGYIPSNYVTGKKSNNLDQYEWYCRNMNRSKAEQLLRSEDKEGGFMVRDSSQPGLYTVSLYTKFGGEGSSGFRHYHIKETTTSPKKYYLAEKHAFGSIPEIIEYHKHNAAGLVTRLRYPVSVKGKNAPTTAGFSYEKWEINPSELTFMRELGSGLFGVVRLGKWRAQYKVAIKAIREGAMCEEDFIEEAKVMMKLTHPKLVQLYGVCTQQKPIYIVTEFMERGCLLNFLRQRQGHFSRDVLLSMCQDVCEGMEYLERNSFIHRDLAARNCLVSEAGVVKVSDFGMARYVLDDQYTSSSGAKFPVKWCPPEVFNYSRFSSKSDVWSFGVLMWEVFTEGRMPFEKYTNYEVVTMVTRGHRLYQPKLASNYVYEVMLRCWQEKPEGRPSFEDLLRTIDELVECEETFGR

[2] = target: B-Raf (Homo sapiens, UniProt P15056); assay: Kinase activity assay, B-Raf; format: biochemical; conditions: read-out: activity toward kinase B-Raf, IC50
Chain of B-Raf (P15056 whole entry): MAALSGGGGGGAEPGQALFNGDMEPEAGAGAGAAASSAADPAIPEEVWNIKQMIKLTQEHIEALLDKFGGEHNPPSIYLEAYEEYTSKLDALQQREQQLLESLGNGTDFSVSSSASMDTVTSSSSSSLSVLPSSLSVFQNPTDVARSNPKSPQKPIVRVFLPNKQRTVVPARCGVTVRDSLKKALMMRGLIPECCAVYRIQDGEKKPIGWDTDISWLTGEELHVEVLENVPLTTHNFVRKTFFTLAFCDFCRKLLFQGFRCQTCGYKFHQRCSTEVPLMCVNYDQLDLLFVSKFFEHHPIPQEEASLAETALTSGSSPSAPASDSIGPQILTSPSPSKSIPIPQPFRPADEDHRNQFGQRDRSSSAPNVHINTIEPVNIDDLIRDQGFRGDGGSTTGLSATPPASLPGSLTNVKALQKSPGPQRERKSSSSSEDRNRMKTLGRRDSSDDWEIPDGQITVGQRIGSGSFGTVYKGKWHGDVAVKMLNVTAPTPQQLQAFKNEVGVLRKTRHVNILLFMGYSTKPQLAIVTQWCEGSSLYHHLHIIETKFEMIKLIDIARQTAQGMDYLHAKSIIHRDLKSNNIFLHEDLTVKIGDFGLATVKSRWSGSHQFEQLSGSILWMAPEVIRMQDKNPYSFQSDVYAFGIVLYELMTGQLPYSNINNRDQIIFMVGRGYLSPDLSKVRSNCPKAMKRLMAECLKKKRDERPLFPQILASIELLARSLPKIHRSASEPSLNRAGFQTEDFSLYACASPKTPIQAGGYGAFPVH

[3] = target: Kit (Homo sapiens, UniProt P10721); assay: Kinase activity assay, Kit
[4] = target: Kdr (Homo sapiens, UniProt P35968); assay: Kinase activity assay, Kdr
Chain of Kdr (P35968 20-1356): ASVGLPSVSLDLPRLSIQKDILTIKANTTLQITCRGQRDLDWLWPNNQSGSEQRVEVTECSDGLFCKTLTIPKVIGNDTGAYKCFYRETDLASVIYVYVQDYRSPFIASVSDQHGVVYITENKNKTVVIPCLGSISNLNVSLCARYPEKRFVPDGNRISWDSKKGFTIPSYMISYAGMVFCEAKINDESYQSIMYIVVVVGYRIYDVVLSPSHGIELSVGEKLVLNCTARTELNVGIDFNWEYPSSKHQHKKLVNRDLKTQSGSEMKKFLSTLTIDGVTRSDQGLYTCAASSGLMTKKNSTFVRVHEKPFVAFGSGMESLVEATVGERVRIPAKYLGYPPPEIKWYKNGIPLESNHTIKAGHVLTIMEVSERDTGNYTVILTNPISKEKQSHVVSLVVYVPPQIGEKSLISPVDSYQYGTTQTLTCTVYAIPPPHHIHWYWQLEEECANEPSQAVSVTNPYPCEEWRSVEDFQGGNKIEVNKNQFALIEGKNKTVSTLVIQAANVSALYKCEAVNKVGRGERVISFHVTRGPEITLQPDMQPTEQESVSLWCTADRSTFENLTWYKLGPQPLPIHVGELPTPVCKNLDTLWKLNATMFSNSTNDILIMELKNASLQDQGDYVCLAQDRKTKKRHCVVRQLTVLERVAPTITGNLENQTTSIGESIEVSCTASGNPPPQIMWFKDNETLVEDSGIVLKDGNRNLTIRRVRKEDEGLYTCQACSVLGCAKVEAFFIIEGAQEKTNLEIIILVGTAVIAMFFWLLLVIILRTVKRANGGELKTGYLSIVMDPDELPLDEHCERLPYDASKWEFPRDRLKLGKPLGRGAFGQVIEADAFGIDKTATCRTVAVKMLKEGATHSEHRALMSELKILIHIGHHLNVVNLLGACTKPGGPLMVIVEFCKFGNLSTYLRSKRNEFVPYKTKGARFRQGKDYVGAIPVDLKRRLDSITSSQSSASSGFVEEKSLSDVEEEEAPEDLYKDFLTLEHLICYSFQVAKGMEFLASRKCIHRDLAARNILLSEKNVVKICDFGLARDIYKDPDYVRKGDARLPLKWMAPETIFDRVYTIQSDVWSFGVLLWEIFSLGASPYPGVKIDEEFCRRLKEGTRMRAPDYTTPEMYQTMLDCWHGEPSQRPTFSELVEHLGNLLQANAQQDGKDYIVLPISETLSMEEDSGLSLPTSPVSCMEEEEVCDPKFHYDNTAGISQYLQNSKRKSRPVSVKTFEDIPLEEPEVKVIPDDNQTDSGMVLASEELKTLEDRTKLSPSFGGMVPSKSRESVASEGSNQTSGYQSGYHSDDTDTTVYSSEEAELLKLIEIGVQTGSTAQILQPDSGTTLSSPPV

[5] = target: C-Raf (Homo sapiens, UniProt P04049); assay: Kinase activity assay, C-Raf
[6] = target: Src (Homo sapiens, UniProt P12931); assay: Kinase activity assay, Src
Chain of Src (P12931 whole entry): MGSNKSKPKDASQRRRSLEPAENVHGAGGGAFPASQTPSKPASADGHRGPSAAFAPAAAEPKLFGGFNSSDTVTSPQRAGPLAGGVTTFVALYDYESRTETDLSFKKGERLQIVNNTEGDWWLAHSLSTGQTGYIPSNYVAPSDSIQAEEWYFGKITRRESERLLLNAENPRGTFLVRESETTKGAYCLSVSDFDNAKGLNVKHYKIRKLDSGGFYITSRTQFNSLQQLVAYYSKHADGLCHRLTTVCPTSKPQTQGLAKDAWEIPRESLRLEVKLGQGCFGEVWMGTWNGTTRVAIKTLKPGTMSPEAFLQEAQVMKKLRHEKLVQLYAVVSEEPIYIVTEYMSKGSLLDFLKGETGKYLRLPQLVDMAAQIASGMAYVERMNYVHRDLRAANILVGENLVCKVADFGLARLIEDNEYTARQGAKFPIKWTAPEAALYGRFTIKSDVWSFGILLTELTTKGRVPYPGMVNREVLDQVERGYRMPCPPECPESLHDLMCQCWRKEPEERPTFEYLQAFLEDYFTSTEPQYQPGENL

[7] = target: B-Raf V600E (Homo sapiens, UniProt P15056, V600E); assay: Kinase activity assay, B-Raf V600E; format: biochemical; conditions: read-out: activity toward kinase B-Raf V600E, IC50
Chain of B-Raf V600E (P15056 whole entry V600E): as the sequence (P15056 whole entry) above, with V600E counted along it

[8] = target: MAP4K4 (Homo sapiens, UniProt O95819); assay: Kinase activity assay, MAP4K4
Chain of MAP4K4 (O95819 whole entry): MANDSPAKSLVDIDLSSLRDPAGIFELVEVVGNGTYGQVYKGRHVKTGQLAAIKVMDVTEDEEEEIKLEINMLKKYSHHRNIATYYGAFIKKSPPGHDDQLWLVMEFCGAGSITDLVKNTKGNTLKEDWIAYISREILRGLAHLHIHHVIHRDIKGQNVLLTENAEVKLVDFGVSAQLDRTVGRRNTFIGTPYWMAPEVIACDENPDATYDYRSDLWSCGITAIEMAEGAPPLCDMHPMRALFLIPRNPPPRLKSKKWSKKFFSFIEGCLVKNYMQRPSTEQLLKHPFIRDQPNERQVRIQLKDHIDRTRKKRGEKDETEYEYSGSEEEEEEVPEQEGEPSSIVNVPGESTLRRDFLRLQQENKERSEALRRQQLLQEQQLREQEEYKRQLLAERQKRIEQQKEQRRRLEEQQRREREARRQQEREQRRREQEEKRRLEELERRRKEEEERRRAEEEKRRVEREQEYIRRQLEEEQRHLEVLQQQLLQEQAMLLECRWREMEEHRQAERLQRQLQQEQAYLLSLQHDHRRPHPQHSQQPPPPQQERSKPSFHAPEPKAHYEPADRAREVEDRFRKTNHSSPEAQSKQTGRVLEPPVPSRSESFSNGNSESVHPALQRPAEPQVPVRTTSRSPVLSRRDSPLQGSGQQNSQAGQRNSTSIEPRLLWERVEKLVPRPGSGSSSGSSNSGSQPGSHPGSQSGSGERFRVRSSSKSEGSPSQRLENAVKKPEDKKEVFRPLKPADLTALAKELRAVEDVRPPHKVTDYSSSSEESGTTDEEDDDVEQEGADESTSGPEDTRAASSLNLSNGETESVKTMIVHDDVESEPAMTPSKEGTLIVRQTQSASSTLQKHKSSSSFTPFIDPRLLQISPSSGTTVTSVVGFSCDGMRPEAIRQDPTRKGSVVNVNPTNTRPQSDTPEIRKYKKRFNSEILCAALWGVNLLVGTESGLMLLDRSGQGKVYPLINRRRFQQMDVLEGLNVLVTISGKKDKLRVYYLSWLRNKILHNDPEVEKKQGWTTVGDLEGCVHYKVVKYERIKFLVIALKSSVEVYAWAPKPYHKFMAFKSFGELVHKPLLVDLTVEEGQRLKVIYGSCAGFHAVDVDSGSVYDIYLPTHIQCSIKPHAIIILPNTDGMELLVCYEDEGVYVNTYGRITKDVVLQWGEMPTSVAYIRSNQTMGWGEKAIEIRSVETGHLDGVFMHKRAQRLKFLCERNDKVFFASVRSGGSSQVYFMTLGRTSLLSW

[9] = target: Fms (Homo sapiens, UniProt P07333); assay: Kinase activity assay, Fms
Chain of Fms (P07333 20-972): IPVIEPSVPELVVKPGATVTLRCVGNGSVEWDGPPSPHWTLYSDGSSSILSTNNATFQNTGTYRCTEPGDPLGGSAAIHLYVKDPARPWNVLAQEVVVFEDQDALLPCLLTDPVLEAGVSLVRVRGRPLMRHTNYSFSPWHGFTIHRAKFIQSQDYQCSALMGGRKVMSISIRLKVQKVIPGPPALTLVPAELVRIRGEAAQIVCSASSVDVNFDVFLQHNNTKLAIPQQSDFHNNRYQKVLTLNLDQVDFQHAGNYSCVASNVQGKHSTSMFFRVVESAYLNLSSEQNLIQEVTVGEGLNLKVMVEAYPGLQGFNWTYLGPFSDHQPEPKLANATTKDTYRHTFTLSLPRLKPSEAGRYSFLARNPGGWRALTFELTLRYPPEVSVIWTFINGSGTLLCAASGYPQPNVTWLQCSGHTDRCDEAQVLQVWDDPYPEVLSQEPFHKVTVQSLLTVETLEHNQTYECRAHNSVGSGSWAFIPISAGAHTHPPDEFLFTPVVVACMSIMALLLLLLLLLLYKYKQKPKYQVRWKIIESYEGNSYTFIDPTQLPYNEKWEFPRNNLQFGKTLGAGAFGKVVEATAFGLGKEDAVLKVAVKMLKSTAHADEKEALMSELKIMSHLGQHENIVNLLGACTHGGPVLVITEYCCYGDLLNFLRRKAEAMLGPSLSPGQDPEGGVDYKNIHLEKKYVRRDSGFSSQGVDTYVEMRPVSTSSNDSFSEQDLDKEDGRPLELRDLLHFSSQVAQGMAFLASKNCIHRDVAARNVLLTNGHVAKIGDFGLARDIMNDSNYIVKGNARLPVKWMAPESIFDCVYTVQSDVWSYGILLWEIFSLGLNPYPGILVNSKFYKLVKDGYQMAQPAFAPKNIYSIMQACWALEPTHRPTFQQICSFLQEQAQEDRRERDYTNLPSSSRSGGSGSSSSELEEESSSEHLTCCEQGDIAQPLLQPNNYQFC

Compound	IC50 [1] [µM]	IC50 [2] [µM]	IC50 [3] [µM]	IC50 [4] [µM]	IC50 [5] [µM]	IC50 [6] [µM]	IC50 [7] [µM]	IC50 [8] [µM]	IC50 [9] [µM]
COc1ccnc2[nH]cc(C(=O)c3c(F)ccc(NS(=O)(=O)c4ccccc4F)c3F)c12 [P-2021, N-[2,4-Difluoro-3-(4-methoxy-1H-pyrrolo[2,3-b]pyridine-3-carbonyl)-phenyl]-2-fluoro-benzenesulfonamide]	≤ 10	≤ 10	≤ 10	≤ 10	≤ 10	≤ 10	≤ 10	≤ 10	
COc1ccnc2[nH]cc(C(=O)c3c(F)ccc(NS(=O)(=O)c4ccc(F)cc4)c3F)c12 [P-2027, N-[2,4-Difluoro-3-(4-methoxy-1H-pyrrolo[2,3-b]pyridine-3-carbonyl)-phenyl]-4-fluoro-benzenesulfonamide]	≤ 10	≤ 10	≤ 10	≤ 10	≤ 10	≤ 10	≤ 10		
Cc1cnc2[nH]cc(C(=O)c3c(F)ccc(NS(=O)(=O)c4ccccn4)c3F)c2c1 [P-2070, Pyridine-2-sulfonic acid [2,4-difluoro-3-(5-methyl-1H-pyrrolo[2,3-b]pyridine-3-carbonyl)-phenyl]-amide]	≤ 10	≤ 10		≤ 10	≤ 10	≤ 10	≤ 10	≤ 10	
O=C(c1c(F)ccc(NS(=O)(=O)c2cccnc2)c1F)c1c[nH]c2ncc(Cl)cc12 [P-2071, Pyridine-3-sulfonic acid [3-(5-chloro-1H-pyrrolo[2,3-b]pyridine-3-carbonyl)-2,4-difluoro-phenyl]-amide]	≤ 10		≤ 10			≤ 10		≤ 10	
O=C(c1cc(NS(=O)(=O)c2cccc(Cl)c2)ccc1F)c1c[nH]c2ncc(Cl)cc12 [P-2111, 3-Chloro-N-[3-(5-chloro-1H-pyrrolo[2,3-b]pyridine-3-carbonyl)-4-fluoro-phenyl]-benzenesulfonamide]	≤ 10		≤ 10	≤ 10			≤ 10		≤ 10
O=C(c1cc(NS(=O)(=O)c2cccc(Cl)c2)ccc1F)c1c[nH]c2ncccc12 [P-2118, 3-Chloro-N-[4-fluoro-3-(1H-pyrrolo[2,3-b]pyridine-3-carbonyl)-phenyl]-benzenesulfonamide]	≤ 10		≤ 10	≤ 10					≤ 10
Cn1cc(-c2cnc3[nH]cc(C(=O)c4cccc(NS(=O)(=O)c5ccc(OC(F)(F)F)cc5)c4)c3c2)cn1 [P-2132, N-{3-[5-(1-Methyl-1H-pyrazol-4-yl)-1H-pyrrolo[2,3-b]pyridine-3-carbonyl]-phenyl}-4-trifluoromethoxy-benzenesulfonamide]	≤ 10		≤ 10	≤ 10			≤ 10		≤ 10
Cn1cc(-c2cnc3[nH]cc(C(=O)c4cccc(NS(=O)(=O)c5cccc(OC(F)(F)F)c5)c4)c3c2)cn1 [P-2133, N-{3-[5-(1-Methyl-1H-pyrazol-4-yl)-1H-pyrrolo[2,3-b]pyridine-3-carbonyl]-phenyl}-3-trifluoromethoxy-benzenesulfonamide]	≤ 10		≤ 10	≤ 10			≤ 10		≤ 10
Cn1cc(-c2cnc3[nH]cc(C(=O)c4cccc(NS(=O)(=O)c5ccc(C(F)(F)F)cc5)c4)c3c2)cn1 [P-2135, N-{3-[5-(1-Methyl-1H-pyrazol-4-yl)-1H-pyrrolo[2,3-b]pyridine-3-carbonyl]-phenyl}-4-trifluoromethyl-benzenesulfonamide]	≤ 10		≤ 10	≤ 10			≤ 10		≤ 10
COc1ccnc2[nH]cc(C(=O)c3c(F)ccc(NS(=O)(=O)C4CCCCC4)c3F)c12 [P-2361, Cyclohexanesulfonic acid [2,4-difluoro-3-(4-methoxy-1H-pyrrolo[2,3-b]pyridine-3-carbonyl)-phenyl]-amide]	≤ 10	≤ 10	≤ 10		≤ 10	≤ 10	≤ 10		
O=C(c1cc(NS(=O)(=O)C2CCCCC2)ccc1F)c1c[nH]c2ncccc12 [P-2441, Cyclohexanesulfonic acid [4-fluoro-3-(1H-pyrrolo[2,3-b]pyridine-3-carbonyl)-phenyl]-amide]	≤ 10		≤ 10						≤ 10
O=C(c1cc(NS(=O)(=O)C2CCCC2)ccc1F)c1c[nH]c2ncccc12 [P-2442, Cyclopentanesulfonic acid [4-fluoro-3-(1H-pyrrolo[2,3-b]pyridine-3-carbonyl)-phenyl]-amide]	≤ 10			≤ 10			≤ 10		≤ 10
CCCS(=O)(=O)Nc1cccc(S(=O)(=O)c2c[nH]c3ncc(Cl)cc23)c1 [P-2467, Propane-1-sulfonic acid [3-(5-chloro-1H-pyrrolo[2,3-b]pyridine-3-sulfonyl)-phenyl]-amide]	≤ 10				≤ 10		≤ 10	≤ 10	

Next, values leading:

IC50 [1] [µM]	IC50 [2] [µM]	IC50 [3] [µM]	IC50 [4] [µM]	IC50 [5] [µM]	IC50 [6] [µM]	IC50 [7] [µM]	IC50 [8] [µM]	IC50 [9] [µM]	Compound
≤ 10	≤ 10					≤ 10		≤ 10	CCCS(=O)(=O)Nc1ccc(F)c(C(=O)c2c[nH]c3ncc(-c4ccc(O)cc4)cc23)c1F [P-2198, Propane-1-sulfonic acid {2,4-difluoro-3-[5-(4-hydroxy-phenyl)-1H-pyrrolo[2,3-b]pyridine-3-carbonyl]-phenyl}-amide]
≤ 10	≤ 10	≤ 10	≤ 10			≤ 10		≤ 10	CCCS(=O)(=O)Nc1ccc(F)c(C(=O)c2c[nH]c3ncc(C(=O)OCC)cc23)c1F [P-2207, 3-[2,6-Difluoro-3-(propane-1-sulfonylamino)-benzoyl]-1H-pyrrolo[2,3-b]pyridine-5-carboxylic acid ethyl ester]
≤ 10	≤ 10		≤ 10			≤ 10		≤ 10	CCCS(=O)(=O)Nc1ccc(F)c(C(=O)c2c[nH]c3ncc(-c4ccccc4Cl)cc23)c1F [P-2212, Propane-1-sulfonic acid {3-[5-(2-chloro-phenyl)-1H-pyrrolo[2,3-b]pyridine-3-carbonyl]-2,4-difluoro-phenyl}-amide]
≤ 10		≤ 10	≤ 10		≤ 10	≤ 10	≤ 10		CCCC(C)S(=O)(=O)Nc1ccc(F)c(C(=O)c2c[nH]c3ncc(OC)cc23)c1F (stereo not shown) [P-2309, Pentane-2-sulfonic acid [2,4-difluoro-3-(5-methoxy-1H-pyrrolo[2,3-b]pyridine-3-carbonyl)-phenyl]-amide]
≤ 10			≤ 10	≤ 10	≤ 10	≤ 10	≤ 10		CCC(C)S(=O)(=O)Nc1ccc(F)c(C(=O)c2c[nH]c3ncc(C)cc23)c1F (stereo not shown) [P-2312, Butane-2-sulfonic acid [2,4-difluoro-3-(5-methyl-1H-pyrrolo[2,3-b]pyridine-3-carbonyl)-phenyl]-amide]
≤ 10	≤ 10	≤ 10	≤ 10	≤ 10	≤ 10	≤ 10			O=C(c1c(F)ccc(NS(=O)(=O)C2CCCC2)c1F)c1c[nH]c2ncc(Cl)cc12 [P-2358, Cyclopentanesulfonic acid [3-(5-chloro-1H-pyrrolo[2,3-b]pyridine-3-carbonyl)-2,4-difluoro-phenyl]-amide]
≤ 10	≤ 10	≤ 10	≤ 10	≤ 10	≤ 10	≤ 10			N#Cc1cnc2[nH]cc(C(=O)c3c(F)ccc(NS(=O)(=O)C4CCCC4)c3F)c2c1 [P-2359, Cyclopentanesulfonic acid [3-(5-cyano-1H-pyrrolo[2,3-b]pyridine-3-carbonyl)-2,4-difluoro-phenyl]-amide]
≤ 10	≤ 10		≤ 10	≤ 10	≤ 10	≤ 10	≤ 10		Cc1cnc2[nH]cc(C(=O)c3c(F)ccc(NS(=O)(=O)N(C)C)c3F)c2c1 [P-2382, N,N-dimethylamino-sulfonic acid [2,4-difluoro-3-(5-methyl-1H-pyrrolo[2,3-b]pyridine-3-carbonyl)-phenyl]-amide]
